The target in this assay is Lethal factor (Bacillus anthracis) (UniProt P15917). As to the kind of experiment: Bacillus anthracis lethal factor protease inhibitors, multiplex microsphere substrate cleavage, dose response confirmation (AID 602326). The settings on record: multiplex microsphere protease substrate cleavage assay.

Molecules are shown by their SMILES. Active and inactive are the calls of the source. No rule for the calls is given here.

Sequence of Lethal factor (Bacillus anthracis) (P15917 whole entry, looked up): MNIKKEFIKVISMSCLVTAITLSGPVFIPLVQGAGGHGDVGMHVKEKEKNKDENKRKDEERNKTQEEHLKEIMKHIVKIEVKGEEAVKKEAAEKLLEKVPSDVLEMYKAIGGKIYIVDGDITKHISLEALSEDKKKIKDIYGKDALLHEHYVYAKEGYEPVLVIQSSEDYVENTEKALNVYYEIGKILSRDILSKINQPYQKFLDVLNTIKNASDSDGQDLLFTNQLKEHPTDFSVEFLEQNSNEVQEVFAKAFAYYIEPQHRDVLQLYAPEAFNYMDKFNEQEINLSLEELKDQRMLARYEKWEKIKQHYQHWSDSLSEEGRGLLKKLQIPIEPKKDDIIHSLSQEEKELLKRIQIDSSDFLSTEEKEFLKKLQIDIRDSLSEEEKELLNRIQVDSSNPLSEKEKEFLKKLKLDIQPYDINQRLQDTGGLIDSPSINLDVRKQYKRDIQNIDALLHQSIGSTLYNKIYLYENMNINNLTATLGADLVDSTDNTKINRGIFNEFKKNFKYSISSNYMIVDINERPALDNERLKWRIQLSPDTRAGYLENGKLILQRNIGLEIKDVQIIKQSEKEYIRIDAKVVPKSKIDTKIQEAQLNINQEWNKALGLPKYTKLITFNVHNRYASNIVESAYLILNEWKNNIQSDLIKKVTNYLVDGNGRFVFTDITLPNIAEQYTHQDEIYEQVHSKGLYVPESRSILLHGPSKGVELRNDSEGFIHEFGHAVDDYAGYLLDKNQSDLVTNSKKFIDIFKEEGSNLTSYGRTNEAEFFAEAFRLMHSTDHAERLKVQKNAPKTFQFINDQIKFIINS

For orientation: EC50 means the concentration that produces a half-maximal response. Regarding `O=c1c(/C=C(\O)c2ccccc2)nc2ccccc2n1-c1ccccc1`, the EC50 was > 20 µM (inactive).
For `Oc1[nH]c(N=C2N=c3ccccc3=N2)c2ccccc12`, the EC50 was > 20 µM (inactive).

(Values after PubChem BioAssay AID602326 (NMMLSC, 2012).)
